Drawing on patent US10266549B2, “ULK1 inhibitors and methods using same” (SALK INSTITUTE FOR BIOLOGICAL STUDIES, priority 2014, dated 2019), this text covers IC50 for 39 molecules.

Some results are limits rather than exact numbers.

ULK1, sequence (O75385 whole entry, species assumed): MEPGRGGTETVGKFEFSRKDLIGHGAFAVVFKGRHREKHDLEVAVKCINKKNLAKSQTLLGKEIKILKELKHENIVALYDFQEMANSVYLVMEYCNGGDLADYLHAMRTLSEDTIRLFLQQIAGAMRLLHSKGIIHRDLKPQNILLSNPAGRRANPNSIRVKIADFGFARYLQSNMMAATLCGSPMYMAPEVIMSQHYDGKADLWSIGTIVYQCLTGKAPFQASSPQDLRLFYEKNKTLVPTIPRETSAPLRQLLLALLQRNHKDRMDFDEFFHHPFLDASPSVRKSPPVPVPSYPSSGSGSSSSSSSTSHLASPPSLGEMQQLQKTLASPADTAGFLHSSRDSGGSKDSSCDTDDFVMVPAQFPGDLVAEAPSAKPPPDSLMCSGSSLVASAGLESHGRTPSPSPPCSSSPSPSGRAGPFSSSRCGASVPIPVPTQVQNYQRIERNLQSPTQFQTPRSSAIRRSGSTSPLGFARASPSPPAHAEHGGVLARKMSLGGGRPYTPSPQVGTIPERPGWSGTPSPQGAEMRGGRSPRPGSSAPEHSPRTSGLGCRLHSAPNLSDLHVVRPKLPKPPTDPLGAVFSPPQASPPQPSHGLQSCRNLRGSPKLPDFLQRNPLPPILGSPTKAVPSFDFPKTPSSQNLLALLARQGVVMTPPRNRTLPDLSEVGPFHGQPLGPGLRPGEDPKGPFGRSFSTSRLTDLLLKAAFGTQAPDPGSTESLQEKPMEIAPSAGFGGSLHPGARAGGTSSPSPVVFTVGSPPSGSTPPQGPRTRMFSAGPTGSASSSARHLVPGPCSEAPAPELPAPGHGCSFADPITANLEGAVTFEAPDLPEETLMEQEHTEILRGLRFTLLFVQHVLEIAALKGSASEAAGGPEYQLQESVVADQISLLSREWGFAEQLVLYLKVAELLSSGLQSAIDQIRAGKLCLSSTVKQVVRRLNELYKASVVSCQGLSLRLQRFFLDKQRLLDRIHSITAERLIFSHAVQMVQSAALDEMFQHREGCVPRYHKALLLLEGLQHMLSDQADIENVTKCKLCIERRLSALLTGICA

The experiment has as its target ULK1 (Homo sapiens (Human), UniProt O75385). Put plainly: ULK1 inhibition assay (Table 1). To be noted: * = tested as a mixture of regioisomers. It is filed as biochemical.
For `COc1ccc(C)c(Nc2ncc(Cl)c(Nc3ccc(OC)nc3)n2)c1` [compound 34, 5-Chloro-N^2-(5-methoxy-2-methylphenyl)-N^4-(6-methoxypyridin-3-yl)pyrimidine-2,4-diamine], the 50% inhibitory concentration (IC50) was > 2000 nM.
The same measure for `O=C1CCc2cc(Nc3ncc(Cl)c(Nc4ccc5c(c4)CCC(=O)N5)n3)ccc2N1` [compound 134, 6,6′-((5-chloropyrimidine-2,4-diyl)bis(azanediyl))bis(3,4-dihydroquinolin-2(1H)-one)]: < 200 nM; for `Cc1ccc(Nc2nc(Nc3ccc4c(c3)CCC(=O)N4)ncc2C(F)(F)F)cc1C` [compound 125, 6-((4-((3,4-dimethylphenyl)amino)-5-(trifluoromethyl)pyrimidin-2-yl)amino)-3,4-dihydroquinolin-2(1H)-one]: < 200 nM; for `CNC(=O)c1ccccc1Oc1nc(Nc2ccccc2)ncc1Br` [compound 111, 2-((5-bromo-2-(phenylamino)pyrimidin-4-yl)oxy)-N-methyl benzamide]: > 2000 nM.
To `FC(F)(F)c1cnc(N2CCCC2)nc1Nc1ccc2c(c1)OCO2` [164a, N-(benzo[d][1,3]dioxol-5-yl)-2-(pyrrolidin-1-yl)-5-(trifluoromethyl)pyrimidin-4-amine] belongs > 2000 nM.
For the molecule `N#CCc1cccc(Nc2nc(Nc3ccc4c(c3)CCC(=O)N4)ncc2C(F)(F)F)c1` [compound 61, 2-(3-(2-(2-Oxo-1,2,3,4-tetrahydroquinolin-6-ylamino)-5-(trifluoromethyl)pyrimidin-4-ylamino)phenyl)acetonitrile], the IC50 was < 200 nM.
As for `FC(F)(F)c1cnc(NC2CC2)nc1NC1CC1` [compound 169, N^2,N^4-dicyclopropyl-5-(trifluoromethyl)pyrimidine-2,4-diamine], the IC50 was > 2000 nM.
In the case of `COc1cccc(Nc2ncc(C(F)(F)F)c(O)n2)c1OC` [115b, 2-((2,3-dimethoxyphenyl)amino)-5-(trifluoromethyl)pyrimidin-4-ol], the IC50 is > 2000 nM.
The same measure for `Fc1c(Nc2ncc(C(F)(F)F)c(Nc3ccc4c(c3)OCO4)n2)cccc1C(F)(F)F` [141a, N^4-(benzo[d][1,3]dioxol-5-yl)-N^2-(2-fluoro-3-(trifluoromethyl)phenyl)-5-(trifluoromethyl)pyrimidine-2,4-diamine]: > 2000 nM.
For the molecule `FC(F)(F)c1cnc(Nc2ccc3c(c2)OCO3)nc1N1CCCC1` [164b, N-(benzo[d][1,3]dioxol-5-yl)-4-(pyrrolidin-1-yl)-5-(trifluoromethyl)pyrimidin-2-amine], the IC50 was 200 to 2000 nM.
To `O=C1CCc2cc(Nc3ncc(C(F)(F)F)c(NC4CC4)n3)ccc2N1` [131a, 6-((4-(cyclopropylamino)-5-(trifluoromethyl)pyrimidin-2-yl)amino)-3,4-dihydroquinolin-2(1H)-one] belongs < 200 nM; to `CNC(=O)c1ccccc1Nc1nc(Nc2ccc3c(c2)CCC(=O)N3)ncc1-c1ccccc1` [compound 89, N-Methyl-2-((2-((2-oxo-1,2,3,4-tetrahydroquinolin-6-yl)amino)-5-phenylpyrimidin-4-yl)amino)benzamide], < 200 nM; to `CNC(=O)c1ccccc1Oc1nc(Nc2ccccc2SC)ncc1C(F)(F)F` [116a, N-methyl-2-((2-((2-(methylthio)phenyl)amino)-5-(trifluoromethyl)pyrimidin-4-yl)oxy)benzamide], > 2000 nM.
In the case of `COc1cc(N2CCOCC2)ccc1Nc1ncc(C(F)(F)F)c(NCc2cccc(S(C)(=O)=O)c2)n1` [compound 52, N^2-(2-Methoxy-4-morpholinophenyl)-N^4-(3-(methylsulfonyl)benzyl)-5-(trifluoromethyl)pyrimidine-2,4-diamine], the IC50 is > 2000 nM.
To `FC(F)(F)c1cnc(Nc2ccc3c(c2)OCO3)nc1N1CCC1` [166b, 4-(azetidin-1-yl)-N-(benzo[d][1,3]dioxol-5-yl)-5-(trifluoromethyl)pyrimidin-2-amine] belongs < 200 nM.
Regarding `COc1ccc(C)c(Nc2ncc(Cl)c(Nc3nccc(C)n3)n2)c1` [compound 55, 5-Chloro-N^2-(5-methoxy-2-methylphenyl)-N^4-(4-methylpyrimidin-2-yl)pyrimidine-2,4-diamine], the IC50 is > 2000 nM.
To `COc1ccc(Nc2nc(Nc3ccc4c(c3)CCC(=O)N4)ncc2Br)cn1` [compound 156, 6-((5-bromo-4-((6-methoxypyridin-3-yl)amino)pyrimidin-2-yl)amino)-3,4-dihydroquinolin-2(1H)-one] belongs < 200 nM; to `CS(=O)(=O)c1cccc(CNc2nc(Nc3ccc4c(c3)CCC(=O)N4)ncc2F)c1` [compound 56, 6-((5-Fluoro-4-((3-(methylsulfonyl)benzyl)amino)pyrimidin-2-yl)amino)-3,4-dihydroquinolin-2(1H)-one], > 2000 nM.
To `FC(F)(F)c1cnc(Nc2cnc3[nH]ccc3c2)nc1NC1CC1` [152a, N^4-cyclopropyl-N^2-(1H-pyrrolo[2,3-b]pyridin-5-yl)-5-(trifluoromethyl)pyrimidine-2,4-diamine] belongs < 200 nM.
Consider `CS(=O)(=O)c1cccc(CNc2nc(Nc3ccc4[nH]ccc4c3)ncc2Br)c1` [compound 153, 5-bromo-N^2-(1H-indol-5-yl)-N^4-(3-(methylsulfonyl)benzyl) pyrimidine-2,4-diamine], for which the IC50 was > 2000 nM.
Consider `CNC(=O)c1ccccc1Oc1nc(Nc2ccc(C)c(C)c2)ncc1C(F)(F)F` [compound 106, 2-((2-((3,4-dimethylphenyl)amino)-5-(trifluoromethyl)pyrimidin-4-yl)oxy)-N-methylbenzamide], for which the IC50 fell in the range of 200 to 2000 nM.
The same measure for `COc1ccc(Nc2nc(Nc3cc(OC)c(OC)c(OC)c3)ncc2C(F)(F)F)cn1` [compound 37, N^4-(6-Methoxypyridin-3-yl)-5-(trifluoromethyl)-N^2-(3,4,5-trimethoxyphenyl)pyrimidine-2,4-diamine]: < 200 nM.
Regarding `O=C1CCc2cc(Nc3ncc(C(F)(F)F)c(CCc4ccccc4)n3)ccc2N1` [compound 66, 6-((4-Phenethyl-5-(trifluoromethyl)pyrimidin-2-yl)amino)-3,4-dihydroquinolin-2(1H)-one], the half-inhibitory concentration (IC50) was in the range of 200 to 2000 nM.
To “N2-(2-methoxy-5-methylphenyl)-N4-(3-(methylsulfonyl) benzyl)-5-(trifluoromethyl)pyrimidine-2,4-diamine [compound 50]” belongs > 2000 nM.
To `COc1cnc(Nc2ccc3c(c2)CCC(=O)N3)nc1Nc1ccc2c(c1)CCC(=O)N2` [compound 135, 6,6′-((5-methoxypyrimidine-2,4-diyl)bis(azanediyl))bis(3,4-dihydroquinolin-2(1H)-one)] belongs > 2000 nM; to `CNC(=O)c1ccccc1Oc1nc(Nc2cc(C)ccc2C)ncc1C(F)(F)F` [compound 104, 2-((2-((2,5-dimethylphenyl)amino)-5-(trifluoromethyl)pyrimidin-4-yl)oxy)-N-methylbenzamide], > 2000 nM; to `CNC(=O)c1ccccc1Nc1nc(Nc2cc(OC)c(OC)c(OC)c2)ncc1Cl` [compound 15, 2-(5-Chloro-2-(3,4,5-trimethoxyphenylamino)pyrimidin-4-ylamino)-N-methylbenzamide], < 200 nM.
On to `FC(F)(F)c1cnc(Nc2cnc3[nH]ccc3c2)nc1Nc1ccccc1` [181a, N4-phenyl-N2-(1H-pyrrolo[2,3-b]pyridin-5-yl)-5-(trifluoromethyl)pyrimidine-2,4-diamine], for which the IC50 was < 200 nM.
Take `CNC(=O)c1ccccc1Nc1nc(Nc2ccc3c(c2)CCC(=O)N3)ncc1Cl` [compound 19, 2-(5-Chloro-2-(2-oxo-1,2,3,4-tetrahydroquinolin-6-ylamino)pyrimidin-4-ylamino)-N-methylbenzamide]: the IC50 was < 200 nM.
The same measure for `CNC(=O)c1ccccc1Oc1nc(Nc2cc(OC)ccc2OC)ncc1C(F)(F)F` [109a, 2-((2-((2,5-dimethoxyphenyl)amino)-5-(trifluoromethyl)pyrimidin-4-yl)oxy)-N-methylbenzamide]: > 2000 nM; for `COc1ccc(Nc2nc(Nc3ccc4[nH]ccc4c3)ncc2Br)cn1` [compound 30, 5-Bromo-N^2-(1H-indol-5-yl)-N^4-(6-methoxypyridin-3-yl) pyrimidine-2,4-diamine]: < 200 nM.
Take `CNC(=O)c1ccccc1Nc1nc(Nc2cc(OC)ccc2C)ncc1C(F)(F)F` [compound 42, 2-(2-(5-Methoxy-2-methylphenylamino)-5-(trifluoromethyl)pyrimidin-4-ylamino)-N-methylbenzamide]: the IC50 is < 200 nM.
The same measure for `CNC(=O)c1ccccc1Oc1nc(Nc2cc(OC)ccc2C)ncc1Br` [compound 170, 2-((5-bromo-2-((5-methoxy-2-methylphenyl)amino)pyrimidin-4-yl)oxy)-N-methylbenzamide]: > 2000 nM.
The same measure for `COc1cc(Nc2ncc(Br)c(N(C)C(=O)c3ccccc3O)n2)cc(OC)c1OC` [171b, N-(5-bromo-2-((3,4,5-trimethoxyphenyl)amino)pyrimidin-4-yl)-2-hydroxy-N-methylbenzamide]: < 200 nM; for `O=C1CCc2cc(Nc3ncc(C(F)(F)F)c(NC4CCC4)n3)ccc2N1` [150a, 6-((4-(cyclobutylamino)-5-(trifluoromethyl)pyrimidin-2-yl)amino)-3,4-dihydroquinolin-2(1H)-one]: < 200 nM; for `CNC(=O)c1ccccc1Oc1nc(Nc2ccc(Cl)c(Cl)c2)ncc1C(F)(F)F` [108a, 2-((2-((3,4-dichlorophenyl)amino)-5-(trifluoromethyl)pyrimidin-4-yl)oxy)-N-methylbenzamide]: > 2000 nM.
`Brc1cnc(Nc2ccc3[nH]ccc3c2)nc1Nc1ccccn1` [compound 154, 5-bromo-N^2-(1H-indol-5-yl)-N^4-(pyridin-2-yl)pyrimidine-2,4-diamine]: the IC50 was < 200 nM.
Regarding `CNC(=O)c1ccccc1Nc1nc(Nc2cc(OC)c(OC)c(OC)c2)ncc1CCc1ccccc1` [compound 87, N-Methyl-2-((5-phenethyl-2-((3,4,5-trimethoxyphenyl)amino)pyrimidin-4-yl)amino)benzamide], the IC50 was in the range of 200 to 2000 nM.
To `CCCCOc1nc(Nc2cc(OC)c(OC)c(OC)c2)ncc1Br` [compound 173, 5-bromo-4-butoxy-N-(3,4,5-trimethoxyphenyl)pyrimidin-2-amine] belongs < 200 nM.
